Format in all cases: cell-based
For one assay, the system named is R5 HIV-1. Particulars: for % inhibitory activity (10 µg/ml): R5, 2 h; for % inhibitory activity (10 µg/ml), endogenous HIV-1 replication: ex vivo, day 10 of culture, p24, mean of 3 determinations.
Assay [1] concerns B16F10-Nex2 murine melanoma cells. The following applies: 12 h.
Experimental: Each peptide was tested in triplicate. After 12 h, the cytotoxic activities of the peptides were determined by measuring cell viability by Trypan Blue exclusion.
The next assay has as its system Candida albicans UP10. Particulars: for Anti-Candida activity (%) at 100 µg/mL: 37°C, 6 h, triplicate; for EC50: UP10, 6 h; for EC50asd/EC50H2: anti-Candida EC50 of the derivative relative to C7/pc42 H2.
The subject of a further assay is HIV-1 BaL (R5). The experiment in a line: In vitro exogenous HIV-1 infection of PHA-stimulated PBMCs, BaL strain (p24 assay). Particulars: day 10, p24, mean of 3 determinations.
The subject of a further assay is HIV-1 IIIB (X4). The assay is described as follows: In vitro exogenous HIV-1 infection of PHA-stimulated PBMCs, IIIB strain (p24 assay). The following applies: day 10, p24, mean of 3 determinations.
Where [2] appears, read: C7/pc42 H2 alanine-substituted derivatives, 100 µg/mL, CFU assay.
Setting [3] is: CDR peptides, 100 µg/mL in distilled water, CFU after 48–72 h, C. albicans UP10.

Read-outs that look alike come from different tables or passages of the source. Where a SMILES comes first, the peptide text is derived from it.

Experimental for Candida albicans UP10: The alanine substituted derivatives (asd), defined according to the position held by the alanine-substituted aminoacid, were tested in the same biological assays to critically establish the functional relevance of each residue [5]. In vitro microbicidal activity of CDR peptides and selected asd against C. albicans UP 10 (clinical isolate from the fungi collection of the University of Parma) and C. albicans NCPF 3153 (National Collection of Pathogenic Fungi, Bristol, UK) were used for the in vitro experiments.
The microbicidal activity of synthetic CDRs against C. albicans strains was preliminarily evaluated by testing 100 µg/mL of each synthetic peptide by colony forming unit (CFU) assays as previously described [5]. Briefly, 10 µL of a distilled water suspension containing ∼5×10^4/mL germinating yeast cells were added to 90 µL of distilled water containing the synthetic peptide to be tested. Yeast suspensions were incubated at 37°C for 6 h. After incubation, the cell suspensions were plated on Sabouraud dextrose agar, incubated at 30°C and observed for CFU determination after 48–72 hours. Each assay was carried out in triplicate. […] EC50 was calculated by nonlinear regression analysis using Graph Pad Prism 4.01 software, San Diego, CA, USA.
Experimental for HIV-1 BaL (R5): (§1) Briefly, for endogenous HIV-1 replication assays peripheral blood mononuclear cells (PBMCs) from R5 HIV-1-infected patients characterized by high viral RNA titers in plasma and cell-associated viremia were cultured in 96-well plates at 1×10^6 cells/mL in RPMI 1640 medium with 10% fetal calf serum (FCS) and 20 U/mL of rIL-2. Exogenous rIL-2 was added every 3–4 days. Cultures were treated with synthetic mAb CDRs and mAb C7/pc42 H1 asd at 10 µg/mL during the time of culture. Virus production on days 5 and 10 was assayed in the supernatants using ultrasensitive Alliance® HIV-1 p24 ELISA kit (Perkin Elmer); p24 Ag in the supernatants of untreated cultures corresponded to 100% of viral production. For exogenous infection assays, PHA-stimulated PBMCs obtained from healthy individuals were infected with BaL (R5) or IIIB (X4) HIV-1 strain at a median tissue culture infective dose (TCID50) of 500 TCID50/ml. After 2 h of adsorption, the cells were washed, suspended at 2×10^5 cells/ml in medium and cultured in 96-well cultures plates. At time zero of infection, synthetic peptides were added to the cultures at 10 µg/ml and were maintained throughout the experiment. All assays were performed in triplicate. Virus production was assayed 10 days after infection in the supernatants of HIV-1-infected PBMCs by p24 assay.
Experimental for HIV-1 IIIB (X4): as §1
Experimental for R5 HIV-1: as §1

Consider `CSCC[C@H](NC(=O)[C@H](Cc1ccc(O)cc1)NC(=O)[C@H](Cc1ccc(O)cc1)NC(=O)[C@H](C)N)C(=O)N[C@@H](Cc1c[nH]cn1)C(=O)O` [G1A] (H-AYYMH-OH; N-terminus and C-terminus assumed), for which, in the assay on R5 HIV-1, the “% inhibitory activity (10 µg/ml)” value amounted to 0%.
On the same count and under the same terms, with `CSCC[C@H](NC(=O)[C@H](Cc1ccc(O)cc1)NC(=O)[C@H](Cc1ccc(O)cc1)NC(=O)CN)C(=O)N[C@@H](C)C(=O)O` [H5A] (H-GYYMA-OH; N-terminus and C-terminus assumed) the figure was 0%.
Still for that read-out and setting: with `C[C@H](NC(=O)[C@H](Cc1ccc(O)cc1)NC(=O)[C@H](Cc1ccc(O)cc1)NC(=O)CN)C(=O)N[C@@H](Cc1c[nH]cn1)C(=O)O` [M4A] (H-GYYAH-OH; N-terminus and C-terminus assumed) the figure was 41%.
Regarding `CC[C@H](C)[C@H](NC(=O)[C@@H](N)Cc1ccc(O)cc1)C(=O)N[C@@H](CO)C(=O)N[C@@H](CS)C(=O)N[C@@H](Cc1ccc(O)cc1)C(=O)N[C@@H](C)C(=O)NCC(=O)N[C@@H](C)C(=O)N[C@H](C(=O)N[C@@H](CO)C(=O)N[C@@H](Cc1ccc(O)cc1)C(=O)N[C@@H](CC(N)=O)C(=O)N[C@@H](CCC(N)=O)C(=O)N[C@@H](CCCCN)C(=O)N[C@@H](Cc1ccccc1)C(=O)N[C@@H](CCCCN)C(=O)O)[C@@H](C)O` [N6A] (H-YISCYAGATSYNQKFK-OH; N-terminus and C-terminus assumed), in assay [1], a half-maximal effect (EC50) was put at 76.9 µM. For the same compound, the “Anti-Candida activity (%) at 100 µg/mL” value in the assay on Candida albicans UP10 (setting [2]) is 100.00%. In the assay with Candida albicans UP10, this compound registered an EC50 of 1.54 µM and an EC50asd/EC50H2 of 0.37.
`CC[C@H](C)[C@H](NC(=O)[C@@H](N)Cc1ccc(O)cc1)C(=O)N[C@@H](CO)C(=O)N[C@@H](CS)C(=O)N[C@@H](Cc1ccc(O)cc1)C(=O)N[C@@H](CC(N)=O)C(=O)NCC(=O)N[C@@H](C)C(=O)N[C@H](C(=O)N[C@@H](CO)C(=O)N[C@@H](Cc1ccc(O)cc1)C(=O)N[C@@H](C)C(=O)N[C@@H](CCC(N)=O)C(=O)N[C@@H](CCCCN)C(=O)N[C@@H](Cc1ccccc1)C(=O)N[C@@H](CCCCN)C(=O)O)[C@@H](C)O` [N12A] (H-YISCYNGATSYAQKFK-OH; N-terminus and C-terminus assumed): in assay [1], the EC50 was 125 µM. In addition, in the assay on Candida albicans UP10 (setting [2]), the “Anti-Candida activity (%) at 100 µg/mL” value amounted to 100.00%. In the assay on Candida albicans UP10, the midpoint of the response, the EC50, lay at 6.48 µM and the EC50asd/EC50H2 amounted to 1.55.
The like results for `CC[C@H](C)[C@H](NC(=O)[C@@H](N)Cc1ccc(O)cc1)C(=O)N[C@@H](CO)C(=O)N[C@@H](CS)C(=O)N[C@@H](Cc1ccc(O)cc1)C(=O)N[C@@H](CC(N)=O)C(=O)NCC(=O)N[C@@H](C)C(=O)N[C@H](C(=O)N[C@@H](CO)C(=O)N[C@@H](Cc1ccc(O)cc1)C(=O)N[C@@H](CC(N)=O)C(=O)N[C@@H](C)C(=O)N[C@@H](CCCCN)C(=O)N[C@@H](Cc1ccccc1)C(=O)N[C@@H](CCCCN)C(=O)O)[C@@H](C)O` [Q13A] (H-YISCYNGATSYNAKFK-OH; N-terminus and C-terminus assumed) were, in that order, 128 µM, 100.00%, 3.91 µM and 0.93.
`CC[C@H](C)[C@H](NC(=O)[C@@H](N)Cc1ccc(O)cc1)C(=O)N[C@@H](C)C(=O)N[C@@H](CS)C(=O)N[C@@H](Cc1ccc(O)cc1)C(=O)N[C@@H](CC(N)=O)C(=O)NCC(=O)N[C@@H](C)C(=O)N[C@H](C(=O)N[C@@H](CO)C(=O)N[C@@H](Cc1ccc(O)cc1)C(=O)N[C@@H](CC(N)=O)C(=O)N[C@@H](CCC(N)=O)C(=O)N[C@@H](CCCCN)C(=O)N[C@@H](Cc1ccccc1)C(=O)N[C@@H](CCCCN)C(=O)O)[C@@H](C)O` [S3A] (H-YIACYNGATSYNQKFK-OH; N-terminus and C-terminus assumed) registered an EC50 in assay [1] of 64.9 µM. In addition, the “Anti-Candida activity (%) at 100 µg/mL” value in the assay on Candida albicans UP10 (setting [2]) is 100.00%. Further, in the assay with Candida albicans UP10, the EC50 came to 3.12 µM and the EC50asd/EC50H2 is 0.74.
The like results for `CC[C@H](C)[C@H](NC(=O)[C@@H](N)Cc1ccc(O)cc1)C(=O)N[C@@H](CO)C(=O)N[C@@H](CS)C(=O)N[C@@H](Cc1ccc(O)cc1)C(=O)N[C@@H](CC(N)=O)C(=O)NCC(=O)N[C@@H](C)C(=O)N[C@H](C(=O)N[C@@H](C)C(=O)N[C@@H](Cc1ccc(O)cc1)C(=O)N[C@@H](CC(N)=O)C(=O)N[C@@H](CCC(N)=O)C(=O)N[C@@H](CCCCN)C(=O)N[C@@H](Cc1ccccc1)C(=O)N[C@@H](CCCCN)C(=O)O)[C@@H](C)O` [S10A] (H-YISCYNGATAYNQKFK-OH; N-terminus and C-terminus assumed) were, in that order, 119 µM, 100.00%, 13.2 µM and 3.16.
The like results for `CC[C@H](C)[C@H](NC(=O)[C@@H](N)Cc1ccc(O)cc1)C(=O)N[C@@H](CO)C(=O)N[C@@H](CS)C(=O)N[C@@H](Cc1ccc(O)cc1)C(=O)N[C@@H](CC(N)=O)C(=O)NCC(=O)N[C@@H](C)C(=O)N[C@@H](C)C(=O)N[C@@H](CO)C(=O)N[C@@H](Cc1ccc(O)cc1)C(=O)N[C@@H](CC(N)=O)C(=O)N[C@@H](CCC(N)=O)C(=O)N[C@@H](CCCCN)C(=O)N[C@@H](Cc1ccccc1)C(=O)N[C@@H](CCCCN)C(=O)O` [T9A] (H-YISCYNGAASYNQKFK-OH; N-terminus and C-terminus assumed) were, in that order, 60.2 µM, 100.00%, 3.8 µM and 0.91.
The like results for `CC[C@H](C)[C@H](NC(=O)[C@H](C)N)C(=O)N[C@@H](CO)C(=O)N[C@@H](CS)C(=O)N[C@@H](Cc1ccc(O)cc1)C(=O)N[C@@H](CC(N)=O)C(=O)NCC(=O)N[C@@H](C)C(=O)N[C@H](C(=O)N[C@@H](CO)C(=O)N[C@@H](Cc1ccc(O)cc1)C(=O)N[C@@H](CC(N)=O)C(=O)N[C@@H](CCC(N)=O)C(=O)N[C@@H](CCCCN)C(=O)N[C@@H](Cc1ccccc1)C(=O)N[C@@H](CCCCN)C(=O)O)[C@@H](C)O` [Y1A] (H-AISCYNGATSYNQKFK-OH; N-terminus and C-terminus assumed) were, in that order, 71.4 µM, 99.37%, 6.21 µM and 1.48.
For the compound `CSCC[C@H](NC(=O)[C@H](Cc1ccc(O)cc1)NC(=O)[C@H](C)NC(=O)CN)C(=O)N[C@@H](Cc1c[nH]cn1)C(=O)O` [Y2A] (H-GAYMH-OH; N-terminus and C-terminus assumed), the “% inhibitory activity (10 µg/ml)” value in the assay with R5 HIV-1 is listed as 61%.
Still for that read-out and setting: in the case of `CSCC[C@H](NC(=O)[C@H](C)NC(=O)[C@H](Cc1ccc(O)cc1)NC(=O)CN)C(=O)N[C@@H](Cc1c[nH]cn1)C(=O)O` [Y3A] (H-GYAMH-OH; N-terminus and C-terminus assumed) it was 90%.
With `CC[C@H](C)[C@H](NC(=O)[C@@H](N)Cc1ccc(O)cc1)C(=O)N[C@@H](CO)C(=O)N[C@@H](CS)C(=O)N[C@@H](C)C(=O)N[C@@H](CC(N)=O)C(=O)NCC(=O)N[C@@H](C)C(=O)N[C@H](C(=O)N[C@@H](CO)C(=O)N[C@@H](Cc1ccc(O)cc1)C(=O)N[C@@H](CC(N)=O)C(=O)N[C@@H](CCC(N)=O)C(=O)N[C@@H](CCCCN)C(=O)N[C@@H](Cc1ccccc1)C(=O)N[C@@H](CCCCN)C(=O)O)[C@@H](C)O` [Y5A] (H-YISCANGATSYNQKFK-OH; N-terminus and C-terminus assumed), the EC50 was 73.5 µM in assay [1] and 28.5 µM in the assay on Candida albicans UP10. The “Anti-Candida activity (%) at 100 µg/mL” value in the assay on Candida albicans UP10 (setting [2]) was found to be 98.10%. The EC50asd/EC50H2 in the assay on Candida albicans UP10 was 6.81.
The like results for `CC[C@H](C)[C@H](NC(=O)[C@@H](N)Cc1ccc(O)cc1)C(=O)N[C@@H](CO)C(=O)N[C@@H](CS)C(=O)N[C@@H](Cc1ccc(O)cc1)C(=O)N[C@@H](CC(N)=O)C(=O)NCC(=O)N[C@@H](C)C(=O)N[C@H](C(=O)N[C@@H](CO)C(=O)N[C@@H](C)C(=O)N[C@@H](CC(N)=O)C(=O)N[C@@H](CCC(N)=O)C(=O)N[C@@H](CCCCN)C(=O)N[C@@H](Cc1ccccc1)C(=O)N[C@@H](CCCCN)C(=O)O)[C@@H](C)O` [Y11A] (H-YISCYNGATSANQKFK-OH; N-terminus and C-terminus assumed) were, in that order, 113 µM, 47.6 µM, 55.70% and 11.35.
On to “ARQGVRGGAMD [C7 H3, synthetic peptide identical to heavy chain CDR H3 of mouse mAb C7]”, for which the “% inhibitory activity (10 µg/ml), exogenous HIV-1 replication, BaL” value (from here on “% inhibitory activity (10 µg/ml) … BaL”) with HIV-1 BaL (R5) amounted to 0%. The “% inhibitory activity (10 µg/ml), endogenous HIV-1 replication” value in the assay with R5 HIV-1 was 0%. Also, the “Anti-Candida activity (%) at 100 µg/mL” value with Candida albicans UP10 (setting [3]) was 55.5%. The “% inhibitory activity (10 µg/ml), exogenous HIV-1 replication, IIIB” value (from here on “% inhibitory activity (10 µg/ml) … IIIB”) in the assay with HIV-1 IIIB (X4) came out at 75%.
As for “DASNRAT [HuA L2, synthetic peptide identical to light chain CDR L2 of human IgM mAb HuA]”, in the assay with HIV-1 BaL (R5), the “% inhibitory activity (10 µg/ml) … BaL” value was 0%. In addition, the “% inhibitory activity (10 µg/ml), endogenous HIV-1 replication” value with R5 HIV-1 was determined as 32%. For the same compound, in the assay with Candida albicans UP10 (setting [3]), the “Anti-Candida activity (%) at 100 µg/mL” value is reported as 0%. The “% inhibitory activity (10 µg/ml) … IIIB” value with HIV-1 IIIB (X4) is 0%.
For “GQTTVTKIDEDY [HuA H3, synthetic peptide identical to heavy chain CDR H3 of human IgM mAb HuA]”, the “% inhibitory activity (10 µg/ml) … BaL” value with HIV-1 BaL (R5) was determined as 0%. Also, the “% inhibitory activity (10 µg/ml), endogenous HIV-1 replication” value in the assay on R5 HIV-1 came out at 36%. The “Anti-Candida activity (%) at 100 µg/mL” value with Candida albicans UP10 (setting [3]) is reported as 19.2%. In addition, in the assay with HIV-1 IIIB (X4), the “% inhibitory activity (10 µg/ml) … IIIB” value was 0%.
Turning to “PNPLKAM [pc42 H3, synthetic peptide identical to heavy chain CDR H3 of mouse mAb pc42]”, the “% inhibitory activity (10 µg/ml) … BaL” value in the assay with HIV-1 BaL (R5) came to 11%. The “% inhibitory activity (10 µg/ml), endogenous HIV-1 replication” value with R5 HIV-1 is reported as 0%. The “Anti-Candida activity (%) at 100 µg/mL” value in the assay with Candida albicans UP10 (setting [3]) is listed as 25.9%. Moreover, the “% inhibitory activity (10 µg/ml) … IIIB” value in the assay on HIV-1 IIIB (X4) worked out at 0%.

Source of the values: paper PMC2396520, “Antibody Complementarity-Determining Regions (CDRs) Can Display Differential Antimicrobial, Antiviral and Antitumor Activities” (PLoS ONE, 2008).
